Source: ChEMBL document CHEMBL1201862, “PubChem BioAssay data set” (2004)
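Where inhibition never reached the appropriate level, the endpoint shown equals the highest concentration tested. Otherwise, values were interpolated linearly from a five-concentration, 48-hour dose response in 96-well plates. GI50 = concentration required for 50% inhibition of growth.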 Active and inactive are the calls of the source. No stated cut-off is given here; in the data, active = GI50 up to about 1.1 µM and inactive = higher.

Assays:
Test in all cases: inhibition of tumour cell growth, NCI panel, 48 h
M19-MEL = tested on: M19-MEL
NCI-H23 = tested on: NCI-H23
TK-10 = tested on: TK-10
NCI-H226 = tested on: NCI-H226
HOP-62 = tested on: HOP-62
RPMI-8226 = tested on: RPMI-8226
SR = tested on: SR
U-251 = tested on: U-251
A549 = tested on: A549
SNB-78 = tested on: SNB-78
M14 = tested on: M14
SF-539 = tested on: SF-539
OVCAR-3 = tested on: OVCAR-3
SNB-19 = tested on: SNB-19
LXFL 529 = tested on: LXFL 529
HCT-116 = tested on: HCT-116
SF-295 = tested on: SF-295
OVCAR-5 = tested on: OVCAR-5
COLO 205 = tested on: COLO 205
SN12C = tested on: SN12C
MOLT-4 = tested on: MOLT-4
DMS-273 = tested on: DMS-273
IGROV-1 = tested on: IGROV-1
SK-MEL-5 = tested on: SK-MEL-5
EKVX = tested on: EKVX
SK-OV-3 = tested on: SK-OV-3
UACC-257 = tested on: UACC-257
NCI-H460 = tested on: NCI-H460
UACC-62 = tested on: UACC-62
SF-268 = tested on: SF-268
HCT-15 = tested on: HCT-15
HL-60 = tested on: HL-60
SNB-75 = tested on: SNB-75
A498 = tested on: A498
SW-620 = tested on: SW-620
OVCAR-4 = tested on: OVCAR-4
786-0 = tested on: 786-0
LOX IMVI = tested on: LOX IMVI
DLD-1 = tested on: DLD-1
HOP-92 = tested on: HOP-92
KM-20L2 = tested on: KM-20L2
ACHN = tested on: ACHN
CAKI-1 = tested on: CAKI-1
HT-29 = tested on: HT-29
DMS-114 = tested on: DMS-114
KM12 = tested on: KM12
UO-31 = tested on: UO-31
SK-MEL-28 = tested on: SK-MEL-28
OVCAR-8 = tested on: OVCAR-8
CCRF-CEM = tested on: CCRF-CEM
RXF 393 = tested on: RXF 393
K562 = tested on: K562
NCI-H522 = tested on: NCI-H522
HCC 2998 = tested on: HCC 2998
SK-MEL-2 = tested on: SK-MEL-2
Malme-3M = tested on: Malme-3M
HOP-18 = tested on: HOP-18

CCCCN(CC)C(=O)C(=O)Cc1nc2ccc(C(=O)c3ccccc3)cc2nc1O
GI50 (M19-MEL): > 100 µM (inactive)
GI50 (NCI-H23): 57.9 µM (inactive)
GI50 (TK-10): > 84.5 µM (inactive)
GI50 (NCI-H226): > 67.9 µM (inactive)
GI50 (HOP-62): > 100 µM (inactive)
GI50 (RPMI-8226): 27 µM (inactive)
GI50 (SR): 21.6 µM (inactive)
GI50 (U-251): 73.1 µM (inactive)
GI50 (A549): > 100 µM (inactive)
GI50 (SNB-78): 49.5 µM (inactive)
GI50 (M14): > 100 µM (inactive)
GI50 (SF-539): 98.9 µM (inactive)
GI50 (OVCAR-3): > 100 µM (inactive)
GI50 (SNB-19): 98.6 µM (inactive)
GI50 (LXFL 529): 47.1 µM (inactive)
GI50 (HCT-116): > 100 µM (inactive)
GI50 (SF-295): 59 µM (inactive)
GI50 (OVCAR-5): > 100 µM (inactive)
GI50 (COLO 205): > 76.2 µM (inactive)
GI50 (SN12C): > 86.1 µM (inactive)
GI50 (MOLT-4): 21.1 µM (inactive)
GI50 (DMS-273): 53 µM (inactive)
GI50 (IGROV-1): > 100 µM (inactive)
GI50 (SK-MEL-5): 50.1 µM (inactive)
GI50 (EKVX): > 63.2 µM (inactive)
GI50 (SK-OV-3): 85.1 µM (inactive)
GI50 (UACC-257): > 100 µM (inactive)
GI50 (NCI-H460): 13.6 µM (inactive)
GI50 (UACC-62): 66.5 µM (inactive)
GI50 (SF-268): > 100 µM (inactive)
GI50 (HCT-15): 67.1 µM
GI50 (HL-60): 20.8 µM (inactive)
GI50 (SNB-75): 25.8 µM (inactive)
GI50 (A498): > 100 µM (inactive)
GI50 (SW-620): > 100 µM (inactive)
GI50 (OVCAR-4): > 100 µM (inactive)
GI50 (786-0): > 100 µM (inactive)
GI50 (LOX IMVI): > 84.7 µM (inactive)
GI50 (DLD-1): > 100 µM (inactive)
GI50 (HOP-92): 53 µM (inactive)
GI50 (KM-20L2): 31.7 µM (inactive)
GI50 (ACHN): 41 µM (inactive)
GI50 (CAKI-1): 54.3 µM (inactive)
GI50 (HT-29): 57.5 µM (inactive)
GI50 (DMS-114): 53.7 µM (inactive)
GI50 (KM12): > 100 µM (inactive)
GI50 (UO-31): 33.3 µM (inactive)
GI50 (SK-MEL-28): 73.3 µM (inactive)
GI50 (OVCAR-8): > 100 µM (inactive)
GI50 (CCRF-CEM): 27.2 µM (inactive)
GI50 (RXF 393): 25.5 µM (inactive)
GI50 (K562): 19.1 µM (inactive)
GI50 (NCI-H522): 20.3 µM (inactive)

COC(=O)C1=CCC2c3[nH]c4ccccc4c3CCN2C1 (centres undefined)
GI50 (M19-MEL): > 354 µM (inactive)
GI50 (NCI-H23): > 354 µM (inactive)
GI50 (TK-10): > 354 µM (inactive)
GI50 (NCI-H226): 203 µM (inactive)
GI50 (HOP-62): > 354 µM (inactive)
GI50 (RPMI-8226): > 354 µM (inactive)
GI50 (SR): > 354 µM (inactive)
GI50 (U-251): > 354 µM (inactive)
GI50 (A549): > 354 µM (inactive)
GI50 (SF-539): > 354 µM (inactive)
GI50 (OVCAR-3): 275 µM (inactive)
GI50 (SNB-19): 193 µM (inactive)
GI50 (LXFL 529): > 354 µM (inactive)
GI50 (HCT-116): 242 µM (inactive)
GI50 (SF-295): > 354 µM (inactive)
GI50 (COLO 205): > 354 µM (inactive)
GI50 (SN12C): > 354 µM (inactive)
GI50 (MOLT-4): > 354 µM (inactive)
GI50 (DMS-273): > 354 µM (inactive)
GI50 (IGROV-1): > 354 µM (inactive)
GI50 (SK-MEL-5): > 354 µM (inactive)
GI50 (EKVX): 343 µM (inactive)
GI50 (SK-OV-3): > 354 µM (inactive)
GI50 (HCC 2998): > 354 µM (inactive)
GI50 (UACC-257): 169 µM (inactive)
GI50 (NCI-H460): > 354 µM (inactive)
GI50 (UACC-62): > 354 µM (inactive)
GI50 (SK-MEL-2): > 354 µM (inactive)
GI50 (SF-268): > 354 µM (inactive)
GI50 (HCT-15): > 354 µM
GI50 (HL-60): > 354 µM (inactive)
GI50 (SW-620): > 354 µM (inactive)
GI50 (786-0): > 354 µM (inactive)
GI50 (LOX IMVI): > 354 µM (inactive)
GI50 (DLD-1): > 354 µM (inactive)
GI50 (HOP-92): > 354 µM (inactive)
GI50 (KM-20L2): > 354 µM (inactive)
GI50 (ACHN): > 354 µM (inactive)
GI50 (CAKI-1): > 354 µM (inactive)
GI50 (HT-29): > 354 µM (inactive)
GI50 (DMS-114): > 354 µM (inactive)
GI50 (KM12): > 354 µM (inactive)
GI50 (SK-MEL-28): > 354 µM (inactive)
GI50 (OVCAR-8): > 354 µM (inactive)
GI50 (CCRF-CEM): > 354 µM (inactive)
GI50 (RXF 393): > 354 µM (inactive)
GI50 (Malme-3M): > 354 µM (inactive)
GI50 (K562): > 354 µM (inactive)
GI50 (NCI-H522): 154 µM (inactive)

CO[C@H](/C(C)=C/C=C/C(C)=C/c1coc(C)n1)[C@H](C)[C@H]1C[C@@H](O)[C@@]2(C)O[C@H]2/C=C/[C@@H](C)[C@@H]2C[C@@H](CC(=O)O2)C[C@H]2O[C@@H]2C(=O)O1
GI50 (M19-MEL): < 0.0236 µM (active)
GI50 (TK-10): 3.21e-06 µM (active)
GI50 (HOP-18): 0.05 µM (active)
GI50 (SR): < 0.01 µM (active)
GI50 (A549): < 0.01 µM (active)
GI50 (LXFL 529): < 0.01 µM (active)
GI50 (OVCAR-5): 0.000384 µM (active)
GI50 (COLO 205): < 0.01 µM (active)
GI50 (DMS-273): < 0.01 µM (active)
GI50 (EKVX): 2.03e-06 µM (active)
GI50 (SK-OV-3): 1.03e-06 µM (active)
GI50 (HCC 2998): < 0.01 µM (active)
GI50 (UACC-257): < 0.0283 µM (active)
GI50 (UACC-62): < 0.01 µM (active)
GI50 (SK-MEL-2): < 0.01 µM (active)
GI50 (SNB-75): < 0.0271 µM (active)
GI50 (OVCAR-4): 5.18e-06 µM (active)
GI50 (DLD-1): 0.0147 µM (active)
GI50 (KM-20L2): < 0.01 µM (active)
GI50 (HT-29): 0.0133 µM (active)
GI50 (DMS-114): < 0.01 µM (active)
GI50 (Malme-3M): < 0.01 µM (active)
GI50 (K562): < 0.01 µM (active)

CCOC(=O)C1=C(C(=O)OCC)C2(c3ccccc3)N(O1)c1ccccc1C2(C)C (centres undefined)
GI50 (M19-MEL): 70.8 µM (inactive)
GI50 (NCI-H23): 30 µM (inactive)
GI50 (TK-10): > 100 µM (inactive)
GI50 (NCI-H226): 32.4 µM (inactive)
GI50 (HOP-62): 37.6 µM (inactive)
GI50 (RPMI-8226): 20.7 µM (inactive)
GI50 (HOP-18): 23.3 µM (inactive)
GI50 (U-251): 34 µM (inactive)
GI50 (A549): 45.5 µM (inactive)
GI50 (SNB-78): 54.8 µM (inactive)
GI50 (M14): 38.5 µM (inactive)
GI50 (SF-539): 43.5 µM (inactive)
GI50 (OVCAR-3): 46.9 µM (inactive)
GI50 (SNB-19): 38.3 µM (inactive)
GI50 (LXFL 529): 36.1 µM (inactive)
GI50 (HCT-116): 32.4 µM (inactive)
GI50 (SF-295): 45.5 µM (inactive)
GI50 (OVCAR-5): 99.3 µM (inactive)
GI50 (COLO 205): 51.5 µM (inactive)
GI50 (MOLT-4): 32 µM (inactive)
GI50 (IGROV-1): 41.8 µM (inactive)
GI50 (SK-MEL-5): 56.4 µM (inactive)
GI50 (EKVX): 45.4 µM (inactive)
GI50 (SK-OV-3): 30.1 µM (inactive)
GI50 (HCC 2998): 93.1 µM (inactive)
GI50 (UACC-257): 39.2 µM (inactive)
GI50 (NCI-H460): 39.5 µM (inactive)
GI50 (UACC-62): 36.5 µM (inactive)
GI50 (SK-MEL-2): 30.9 µM (inactive)
GI50 (SF-268): 31.2 µM (inactive)
GI50 (HL-60): 22.7 µM (inactive)
GI50 (SNB-75): 25.6 µM (inactive)
GI50 (A498): 58.7 µM (inactive)
GI50 (SW-620): 94.8 µM (inactive)
GI50 (OVCAR-4): 18.7 µM (inactive)
GI50 (786-0): 75.7 µM (inactive)
GI50 (DLD-1): 50 µM (inactive)
GI50 (KM-20L2): 39.1 µM (inactive)
GI50 (CAKI-1): 26.7 µM (inactive)
GI50 (HT-29): 69.3 µM (inactive)
GI50 (KM12): 58.1 µM (inactive)
GI50 (UO-31): 20.6 µM (inactive)
GI50 (SK-MEL-28): 44.6 µM (inactive)
GI50 (OVCAR-8): 48.3 µM (inactive)
GI50 (CCRF-CEM): 39.4 µM (inactive)
GI50 (RXF 393): 46 µM (inactive)
GI50 (Malme-3M): 52.2 µM (inactive)
GI50 (K562): 42.7 µM (inactive)
GI50 (NCI-H522): 22.6 µM (inactive)
